The values below come from patent US20240254119A1 (THIRD HARMONIC BIO, INC., priority 2022, published 2024).

In one data set the target is T1, CSF-1R (Homo sapiens, UniProt P07333).
T1 construct: purchased Invitrogen PV3249 (lot 662393N)
Put plainly: HTRF biochemical assay, CSF-1R. To be noted: Table 4. Here is the method: (§1) Exemplary compounds were tested for ability to inhibit the phosphorylation of a peptide substrate by the tyrosine kinase wt KIT, PDGFRα, or CSF-1R. Assay procedures and results are described below.
(§2) Enzyme, substrate, and cofactors (ATP and Mn^2+) are combined in a well of a microtiter plate and incubated for 3 hours at 25° C. At the end of the incubation, the reaction is quenched by the addition of an EDTA-containing buffer.
(§3) The substrate used in the CSF-1R and PDGFRα assay is FAM-[…]-CONH2 (FAM is carboxyfluorescein). Peptide should be >95% purity. The substrate for the KIT assay is FAM-[…]-NH2.
(§4) • 1. To a well of a 384-wellplate add 5 μL of 2× enzyme buffer (or control). • 2. Add 100 nL of 100× compound. Enzyme and compound may be pre-incubated at this time if desired. • 3. Add 5 μL of 2× substrate buffer. • 4. Incubate plate at 25° C. for 3 hours. • 5. Add 10 uL of anti-phosphotyrosine antibody buffer. • 6. Read plate in BioTek Synergy Reader. Reaction Conditions for wtKIT Assay
On the technique in general: Time-resolved FRET reads energy transfer from a long-lived donor to a nearby acceptor.

The target of the next data set is T2, PDGFRα (Homo sapiens, UniProt P16234).
T2 construct: purchased Millipore 14-467 (lot 26321_ACTI)
Put plainly: HTRF biochemical assay, PDGFRα. As to conditions: Table 4, read-out: PDFGRα Biochemical IC50 avg. Here is the method:
as §1, §2, §3, §4

The next data set is described as follows: Kinetic solubility assay. As to conditions: kinetic solubility, 50 mM PB (pH 7.4), shaken 24 hours at RT. Format: physicochemical. A digest of the protocol: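 Test compounds from 10 mM DMSO stock were diluted in 50 mM phosphate buffer, pH 7.4, and shaken for 24 h at RT. After PTFE filtration and centrifugation, filtrate concentration was quantified by UPLC-UV/HPLC-UV against a standard curve.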

For data set [1], the system named is KIT phosphorylation in M-07e cells. Put plainly: Cell-based KIT phosphorylation in M-07e cells by pKIT ELISA. Set-up: species or system human. As to conditions: SCF stimulation. Here is the method: Exemplary compounds were tested for ability to inhibit KIT phosphorylation using M-07e cells as monitored by pKIT ELISA. M-07e cells are also represented as M-07E, M-07e, M07-e, M07e, Mo7e, MO7e, M07E and MO7E. Assay procedures and results are described below.
Part I—Procedures for Determining KIT Inhibition inM-07e Cells Using pKTT ELISA Reagents and consumables: • M-07e cells: Initially obtained from Accegen, cat #ABC-TC1313 • p-cKIT Capture ELISA antibody: anti-Human Phospho-CD117/c-kit, R&D cat #DYC3527-5 • Anti-pY-HIRP antibody: R&D cat #DYC3527-5 • 25× wash buffer: Quantikine ELISA Wash Buffer 1, R&D cat #WA126 • PBS: R&D cat #DY006 • 96 well ELISA plates: Clear Polystyrene Microplates, R&D Cat #DY990 • 96 well Tissue culture plates: Corning® 96 Well TC-Treated Microplates, cat #CLS3894 • RPMI medium: ATCC® RPMI-1640 Medium, Cat #30-2001 • FBS: Fetal Bovine Serum, certified, United States Gibco, Thermo-Fisher 16000044 • GM-CSF: Recombinant Human GM-CSF Protein, R&D cat #215-GM • SCF: Recombinant Human SCF Protein, R&D cat #255-SC
• 1. Prepare cells: • a. Culture M-07e cells in RPMI medium+20% serum+GM-CSF+penstrep • To make 50 mL of growth medium • i. 40 mL RPMI media • ii. 10 mL FBS • iii. 10 uL of GM-CSF (100 ug/mL stock) • iv. 0.5 mL pen strep (100×) • b. Harvest cells • c. Re-suspend cells in 100% RPMI media (without serum) to final concentration of 1 million cells/mL • d. Transfer 100 uL of cell solution to 11 columns of a 96 well flat bottom cell culture plate • e. Incubate cells over night at 37 C • 2. Prepare ELISA Plates: • a. Dilute capture antibody to concentration 4 ug/mL in PBS • b. Coat 96 well microplates with 100 uL of capture antibody • c. Seal plates and incubate at RT overnight • d. Wash plates with 300 uL of wash buffer • e. Repeat wash • f. Treat plates with 300 uL of blocking buffer at RT for 1 hour • 3. Addition of compounds: • a. Prepare compound dilutions in RPMI media • i. Top test concentration is 1 uM • ii. Serially dilute compounds 3× for a total of 8 concentrations • b. Add 10 uL of 10× compound dilutions to cells • i. No compounds added in column 11 (for controls) • c. Incubate cells with compounds for 2 hours at 37 C • d. Stimulate cells with SCF for 5 min at concentration of 100 ng/mL (final) • i. In column 11 stimulate top 4 wells. Leave bottom 4 wells unstimulated • e. Remove cell culture media with multichannel pipet • f. Add 110 uL of Lysis buffer to all wells • g. Incubate plates at RT for 30 min while shaking • 4. Transfer 100 uL of cell lysis to each prepared Elisa plate • 5. Add 100 uL of the standard pc-KIT dilutions to the standard wells in column 12 • a. Top concentration=2000 pg/mL • b. 2× dilutions • 6. Incubate ELISA plate with cell lysate for 2 hours at RT • 7. Wash Plate with wash buffer (wash 1) • 8. Repeat wash (wash 2) • 9. […] Add 100 uL of diluted anti-pY-HRP (1/1000 dilution in detection antibody dilution buffer) and incubate 2 hours at RT • 11. Wash plate with wash buffer (wash 1) • 12. Repeat wash (wash 2) • 13. Repeat wash (wash 3) • 14. Add 100 uL of substrate solution to each well • 15. Incubate plates 20 min • Note: Plate development is indicated by aqua color • 16. Add 50 uL of stop solution to each well • 17. Determine optical density on Bitek Synergy Neo2: • a. Make new experiment
Select absorbance 1 set to 450 nm

The next data set addresses T3, wtKIT (Homo sapiens, UniProt P10721).
T3 construct: 1888289AM in the reaction mixtures
In words: HTRF biochemical assay, wtKIT (phosphorylation of a peptide substrate). To be noted: Table 4. The method in brief:
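wtKIT (5.0 nM) phosphorylating 1 µM FAM-labelled peptide with 400 µM ATP and 10 mM MnCl2 in 100 mM HEPES pH 7.5, 1% DMSO, 3 h at 25 °C. EDTA quench; phosphopeptide detected with anti-phosphotyrosine antibody by HTRF. Enzyme titrated for 10-20% substrate conversion.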

pIC50: −log10 of the molar value.

Broadly, the pIC50 is the IC50 on a negative log10 scale, so that one unit is a factor of ten.

T1 sequence (P07333 20-972): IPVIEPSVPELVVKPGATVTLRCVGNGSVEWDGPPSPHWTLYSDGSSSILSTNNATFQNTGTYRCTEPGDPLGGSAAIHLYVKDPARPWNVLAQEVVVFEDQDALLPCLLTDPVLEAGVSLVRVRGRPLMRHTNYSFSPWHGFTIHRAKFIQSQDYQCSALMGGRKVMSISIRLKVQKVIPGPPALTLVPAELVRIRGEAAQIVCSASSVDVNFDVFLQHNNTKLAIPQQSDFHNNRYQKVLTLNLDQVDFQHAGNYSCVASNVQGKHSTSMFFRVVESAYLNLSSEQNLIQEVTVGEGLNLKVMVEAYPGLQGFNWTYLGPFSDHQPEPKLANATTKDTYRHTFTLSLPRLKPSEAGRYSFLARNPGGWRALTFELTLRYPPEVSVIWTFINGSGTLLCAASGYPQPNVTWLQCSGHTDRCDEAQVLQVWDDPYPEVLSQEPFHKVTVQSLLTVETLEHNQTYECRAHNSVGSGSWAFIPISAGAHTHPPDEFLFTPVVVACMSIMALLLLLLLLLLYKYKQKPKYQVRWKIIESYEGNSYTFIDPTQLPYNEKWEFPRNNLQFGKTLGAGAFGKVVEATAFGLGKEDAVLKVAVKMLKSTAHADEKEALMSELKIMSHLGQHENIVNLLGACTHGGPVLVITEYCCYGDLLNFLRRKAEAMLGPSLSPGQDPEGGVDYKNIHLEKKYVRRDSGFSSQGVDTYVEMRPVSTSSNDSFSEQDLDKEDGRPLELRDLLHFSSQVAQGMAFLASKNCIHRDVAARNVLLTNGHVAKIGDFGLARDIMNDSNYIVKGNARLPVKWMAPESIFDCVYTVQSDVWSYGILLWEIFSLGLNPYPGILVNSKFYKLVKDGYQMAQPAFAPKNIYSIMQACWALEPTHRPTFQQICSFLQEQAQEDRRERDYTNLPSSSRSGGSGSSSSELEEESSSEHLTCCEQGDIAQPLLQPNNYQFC
T2 sequence (P16234 24-1089): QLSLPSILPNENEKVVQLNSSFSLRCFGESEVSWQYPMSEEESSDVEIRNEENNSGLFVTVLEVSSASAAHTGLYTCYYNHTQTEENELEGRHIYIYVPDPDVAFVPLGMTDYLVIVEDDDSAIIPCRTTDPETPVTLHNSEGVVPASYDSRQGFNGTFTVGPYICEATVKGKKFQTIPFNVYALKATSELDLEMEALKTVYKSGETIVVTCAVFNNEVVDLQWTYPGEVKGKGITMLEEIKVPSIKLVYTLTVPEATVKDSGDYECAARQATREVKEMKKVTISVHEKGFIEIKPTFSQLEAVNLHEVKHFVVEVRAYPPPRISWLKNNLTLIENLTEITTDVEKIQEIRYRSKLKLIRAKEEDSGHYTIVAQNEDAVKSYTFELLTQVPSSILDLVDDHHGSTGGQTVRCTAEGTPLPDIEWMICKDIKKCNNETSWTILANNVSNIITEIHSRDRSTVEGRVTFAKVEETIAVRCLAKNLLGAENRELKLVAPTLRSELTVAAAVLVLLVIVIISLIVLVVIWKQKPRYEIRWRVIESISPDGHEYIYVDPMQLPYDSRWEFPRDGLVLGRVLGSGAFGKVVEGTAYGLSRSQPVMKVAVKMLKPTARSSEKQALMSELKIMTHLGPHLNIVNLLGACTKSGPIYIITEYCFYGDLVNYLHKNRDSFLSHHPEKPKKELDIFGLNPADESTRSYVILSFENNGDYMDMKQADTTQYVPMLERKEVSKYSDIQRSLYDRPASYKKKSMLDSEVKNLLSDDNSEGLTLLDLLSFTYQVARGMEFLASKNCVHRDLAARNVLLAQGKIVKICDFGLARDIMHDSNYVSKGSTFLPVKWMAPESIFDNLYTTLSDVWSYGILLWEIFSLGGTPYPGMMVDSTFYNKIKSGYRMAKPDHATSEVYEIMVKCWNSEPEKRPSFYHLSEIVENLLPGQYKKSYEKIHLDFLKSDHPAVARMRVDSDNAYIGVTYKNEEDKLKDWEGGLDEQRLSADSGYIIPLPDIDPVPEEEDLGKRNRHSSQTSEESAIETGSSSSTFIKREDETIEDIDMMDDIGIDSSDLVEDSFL
T3 sequence (P10721 26-976): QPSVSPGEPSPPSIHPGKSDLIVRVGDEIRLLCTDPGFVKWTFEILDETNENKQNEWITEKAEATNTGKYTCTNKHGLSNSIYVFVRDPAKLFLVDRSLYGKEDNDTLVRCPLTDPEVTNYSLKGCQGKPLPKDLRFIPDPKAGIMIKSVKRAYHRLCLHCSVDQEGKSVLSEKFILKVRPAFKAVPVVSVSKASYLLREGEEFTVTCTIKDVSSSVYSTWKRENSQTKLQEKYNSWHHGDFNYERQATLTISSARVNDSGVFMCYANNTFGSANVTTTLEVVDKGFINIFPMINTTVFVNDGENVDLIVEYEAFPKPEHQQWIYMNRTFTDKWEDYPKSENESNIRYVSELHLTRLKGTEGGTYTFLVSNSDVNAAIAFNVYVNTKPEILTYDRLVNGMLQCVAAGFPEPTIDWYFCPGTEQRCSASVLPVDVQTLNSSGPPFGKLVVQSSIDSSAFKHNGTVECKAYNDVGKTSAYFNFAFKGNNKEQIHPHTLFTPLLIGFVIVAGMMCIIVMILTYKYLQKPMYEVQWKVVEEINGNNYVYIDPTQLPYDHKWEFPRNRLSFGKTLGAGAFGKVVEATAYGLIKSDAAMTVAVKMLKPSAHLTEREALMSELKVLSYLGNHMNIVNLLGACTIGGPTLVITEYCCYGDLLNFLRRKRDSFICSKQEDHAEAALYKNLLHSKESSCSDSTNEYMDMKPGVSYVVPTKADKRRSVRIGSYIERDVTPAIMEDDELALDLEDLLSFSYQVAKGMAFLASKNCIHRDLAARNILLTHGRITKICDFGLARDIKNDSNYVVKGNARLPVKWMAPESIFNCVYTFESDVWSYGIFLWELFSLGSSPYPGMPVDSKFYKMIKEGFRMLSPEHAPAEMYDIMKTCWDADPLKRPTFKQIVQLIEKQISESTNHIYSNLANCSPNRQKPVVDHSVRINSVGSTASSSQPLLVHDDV

As to `COc1ccn2c(C(=O)Nc3cc(-c4noc(C[C@@H](C)O)n4)ccc3C)cnc2c1` [Compound I-95], the pIC50 at CSF-1R was 6.30 to 7.30; at PDGFRα it was 5.30 to 6.30; in data set [1], at least 7.30; at wtKIT, at least 7.30. For the same compound, the “Solubility (μM)” value in the data set “Kinetic solubility assay” is given as “**** (a solubility less than or equal to 2 μM)”.
As to `Cc1ccc(-c2noc(C(O)C3CCC3)n2)cc1NC(=O)c1cnc2ccccn12` (racemic) [Compound I-79], the negative logarithm of the IC50 (pIC50) at CSF-1R was 6.30 to 7.30; at PDGFRα, 6.30 to 7.30; in data set [1] it was at least 7.30; on wtKIT, at least 7.30. The “Solubility (μM)” value in the data set “Kinetic solubility assay” is listed as “**** (a solubility less than or equal to 2 μM)”.
Regarding `Cc1ccc(-c2noc(CC(O)C(F)F)n2)cc1NC(=O)c1cnn2ccccc12` (single isomer, unassigned) [Compound I-75], the pIC50 on CSF-1R was 6.30 to 7.30; on PDGFRα it was 5.30 to 6.30; in data set [1], at least 7.30; on wtKIT, at least 7.30. Further, the “Solubility (μM)” value in the data set “Kinetic solubility assay” is listed as “**** (a solubility less than or equal to 2 μM)”.
In the case of `Cc1ccc2ncc(C(=O)Nc3cc(-c4noc([C@H]5C[C@@H]5F)n4)ccc3C)n2c1` [Compound I-108], the negative-log IC50 (pIC50) at CSF-1R was at least 7.30; on PDGFRα, 6.30 to 7.30; in data set [1] it was at least 7.30; on wtKIT it was at least 7.30. Also, the “Solubility (μM)” value in the data set “Kinetic solubility assay” is recorded as “**** (a solubility less than or equal to 2 μM)”.
Regarding `Cc1ccc(-c2noc([C@H]3C[C@@H]3F)n2)cc1NC(=O)c1cnc2cc(F)ccn12` [Compound I-103], the negative-log IC50 (pIC50) was at least 7.30 on CSF-1R, 5.30 to 6.30 on PDGFRα, 6.30 to 7.30 in data set [1] and at least 7.30 at wtKIT. Also, the “Solubility (μM)” value in the data set “Kinetic solubility assay” was “**** (a solubility less than or equal to 2 μM)”.
In the case of `Cc1ccc(-c2noc(C(F)C3CC3)n2)cc1NC(=O)c1cnc2ccccn12` (racemic) [Compound I-77], the negative-log IC50 (pIC50) was 6.30 to 7.30 at CSF-1R, 4.52 to 5.30 at PDGFRα, at least 7.30 in data set [1] and at least 7.30 on wtKIT. Also, the “Solubility (μM)” value in the data set “Kinetic solubility assay” is recorded as “**** (a solubility less than or equal to 2 μM)”.
With `Cc1ccc(-c2noc([C@H]3C[C@@H]3F)n2)cc1NC(=O)c1cnc2ccc(Cl)cn12` [Compound I-102], the pIC50 on CSF-1R was at least 7.30; on PDGFRα, 5.30 to 6.30; in data set [1], at least 7.30; at wtKIT it was at least 7.30. In addition, the “Solubility (μM)” value in “Kinetic solubility assay” was “**** (a solubility less than or equal to 2 μM)”.
On to `Cc1ccc(-c2noc(C3CC(F)(F)C3)n2)cc1NC(=O)c1cnc2cc(CO)ccn12` [Compound I-105], for which the pIC50 at CSF-1R was at least 7.30; at PDGFRα, 5.30 to 6.30; in data set [1], 6.30 to 7.30; at wtKIT, at least 7.30. Besides, in “Kinetic solubility assay”, the “Solubility (μM)” value was “**** (a solubility less than or equal to 2 μM)”.
For the compound `Cc1ccc(-c2noc(C(O)C3CC3)n2)cc1NC(=O)c1cnc2ccccn12` (racemic) [Compound I-78], the pIC50 at CSF-1R is 6.30 to 7.30; on PDGFRα it was 5.30 to 6.30; in data set [1] it was at least 7.30; at wtKIT, at least 7.30. Moreover, the “Solubility (μM)” value in the data set “Kinetic solubility assay” was “**** (a solubility less than or equal to 2 μM)”.
As for `Cc1ccc(-c2noc([C@H]3C[C@@H]3F)n2)cc1NC(=O)c1cnc2ccc(OC(C)C)cn12` [Compound I-86], the negative logarithm of the IC50 (pIC50) on CSF-1R was at least 7.30; at PDGFRα it was 6.30 to 7.30; in data set [1], at least 7.30; on wtKIT, at least 7.30. Further, in “Kinetic solubility assay”, the “Solubility (μM)” value is given as “**** (a solubility less than or equal to 2 μM)”.
With `COC(=O)N1CC(c2nc(-c3ccc(C)c(NC(=O)c4cnc5cc(CO)ccn45)c3)no2)C1` [Compound I-120], the pIC50 on CSF-1R is 4.52 to 5.30; on PDGFRα it was 4.52 to 5.30; in data set [1], at least 7.30; at wtKIT, 6.30 to 7.30. Also, the “Solubility (μM)” value in the data set “Kinetic solubility assay” was “**** (a solubility less than or equal to 2 μM)”.
